Results on 26 compounds are retold here after patent publication US11739070B2, “C5A receptor modulators” (IDORSIA PHARMACEUTICALS LTD, priority 2018, dated 2023).

For the test, the target named is T1, C5AR1 (Homo sapiens, UniProt P21730).
T1 construct: host or cells: CHO-K1
T1 sequence (P21730 1-350): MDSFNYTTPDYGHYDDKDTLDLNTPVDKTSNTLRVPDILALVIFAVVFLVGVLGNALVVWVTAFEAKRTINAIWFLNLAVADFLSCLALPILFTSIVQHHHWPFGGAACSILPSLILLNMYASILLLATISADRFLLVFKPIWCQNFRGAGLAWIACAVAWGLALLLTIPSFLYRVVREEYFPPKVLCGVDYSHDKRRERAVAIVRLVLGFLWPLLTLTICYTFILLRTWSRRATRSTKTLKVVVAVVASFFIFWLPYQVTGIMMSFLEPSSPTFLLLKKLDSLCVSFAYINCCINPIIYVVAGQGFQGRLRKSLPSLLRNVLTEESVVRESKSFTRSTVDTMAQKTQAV
As to the kind of experiment: hC5a DISCO IC50 assay (PathHunter beta-arrestin, antagonist mode). Format: cell-based. The conditions noted are these: CHO-K1 C5AR1 beta-arrestin cell line; antagonist vs 1-10 nM C5a agonist; geometric mean values; read-out: C5aR IC50. The method, boiled down:
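Antagonist added first, then 1-10 nM C5a agonist; cells incubated 1.5 h at 37 °C. Beta-arrestin signal developed with PathHunter detection reagent, 45 min at RT. IC50 in nmol/l from serial antagonist dilutions, reported as geometric mean of several measurements.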

The structures appear in SMILES notation.

Usually IC50 stands for the point on the concentration scale where inhibition reaches its midpoint.

For the compound `CNC(=O)c1cccc2c1n(Cc1ccccc1C(F)(F)F)c(=O)n2[C@@H]1CCN(c2c(F)cccc2C#N)C1` [Example 99, 1-[(R)-1-(2-Cyano-6-fluoro-phenyl)-pyrrolidin-3-yl]-2-oxo-3-(2-trifluoromethyl-benzyl)-2,3-dihydro-1H-benzoimidazole-4-carboxylic acid methylamide], the concentration for half-maximal inhibition (IC50) is 391 nM.

Consider `COc1cccc2c1n(Cc1ccccc1C(F)(F)F)c(=O)n2C1CCN(c2c(C)cccc2F)CC1F` (centres unmarked) [Example 211, 1-[3-Fluoro-1-(2-fluoro-6-methyl-phenyl)-piperidin-4-yl]-4-methoxy-3-(2-trifluoromethyl-benzyl)-1,3-dihydro-benzoimidazol-2-one], for which the IC50 came to 27 nM. The same measure for `COc1ccccc1Cn1c(=O)n([C@@H]2CCN(c3c(C)cccc3F)C2)c2cc[nH]c(=O)c21` [Example 81, 1-[(R)-1-(2-Fluoro-6-methyl-phenyl)-pyrrolidin-3-yl]-3-(2-methoxy-benzyl)-3,5-dihydro-1H-imidazo[4,5-c]pyridine-2,4-dione]: 2430 nM; for `COc1cccc2c1n(Cc1nnccc1OC(C)C)c(=O)n2[C@@H]1CCN(c2c(C)cccc2F)C1` [Example 173, 1-[(R)-1-(2-Fluoro-6-methyl-phenyl)-pyrrolidin-3-yl]-3-(4-isopropoxy-pyridazin-3-ylmethyl)-4-methoxy-1,3-dihydro-benzoimidazol-2-one]: 107 nM; for `COc1cccc2c1n(Cc1ccccc1C(F)(F)F)c(=O)n2[C@@H]1CCN(c2c(F)cccc2CN(C)C)C1` [Example 106, 1-[(R)-1-(2-Dimethylaminomethyl-6-fluoro-phenyl)-pyrrolidin-3-yl]-4-methoxy-3-(2-trifluoromethyl-benzyl)-1,3-dihydro-benzoimidazol-2-one]: 227 nM.

As to `COc1cccc2c1n(Cc1cnccc1C(F)(F)F)c(=O)n2C1CCN(c2c(F)cccc2F)CC1` [Example 59, 1-[1-(2,6-Difluoro-phenyl)-piperidin-4-yl]-4-methoxy-3-(4-trifluoromethyl-pyridin-3-ylmethyl)-1,3-dihydro-benzoimidazol-2-one], the half-inhibitory concentration (IC50) is 49 nM. As for `COc1ccnc2c1n(Cc1ccccc1C(F)(F)F)c(=O)n2[C@@H]1CCN(c2c(F)cccc2F)C1` [Example 46, 3-[(R)-1-(2,6-Difluoro-phenyl)-pyrrolidin-3-yl]-7-methoxy-1-(2-trifluoromethyl-benzyl)-1,3-dihydro-imidazo[4,5-b]pyridin-2-one], the IC50 was found to be 39 nM.

Take `COc1cccc2c1n(Cc1ccccc1C(F)(F)F)c(=O)n2[C@H]1CN(C(=O)OC(C)(C)C)C[C@H]1C` (relative stereo) [Example 199, (3R*,4R*)-3-[4-Methoxy-2-oxo-3-(2-trifluoromethyl-benzyl)-2,3-dihydro-benzoimidazol-1-yl]-4-methyl-pyrrolidine-1-carboxylic acid tert-butyl ester]: the IC50 turned out to be 119 nM. For the compound `COc1cccc2c1n(Cc1ccccc1C(F)(F)F)c(=O)n2[C@@H]1CCN(c2c(F)cccc2CC=O)C1` [Example 126, (3-Fluoro-2-{(R)-3-[4-methoxy-2-oxo-3-(2-trifluoromethyl-benzyl)-2,3-dihydro-benzoimidazol-1-yl]-pyrrolidin-1-yl}-phenyl)-acetaldehyde], the IC50 worked out at 20 nM.

Regarding `COc1cccc2c1n(Cc1nccnc1C(F)(F)F)c(=O)n2C1CCN(c2c(F)cccc2C#N)CC1` [Example 96, 3-Fluoro-2-{4-[4-methoxy-2-oxo-3-(3-trifluoromethyl-pyrazin-2-ylmethyl)-2,3-dihydro-benzoimidazol-1-yl]-piperidin-1-yl}-benzonitrile], the IC50 worked out at 231 nM. Turning to `COc1cccc2c1n(Cc1ccccc1C(F)(F)F)c(=O)n2[C@@H]1CCN(c2ccccc2OC(F)(F)F)C1` [Example 201, 4-Methoxy-1-[(R)-1-(2-trifluoromethoxy-phenyl)-pyrrolidin-3-yl]-3-(2-trifluoromethyl-benzyl)-1,3-dihydro-benzoimidazol-2-one], the IC50 came to 31 nM. Next, `COc1ncnc2c1n(Cc1ccccc1C(F)(F)F)c(=O)n2[C@@H]1CCN(c2c(F)cccc2C#N)C1` [Example 104, 3-Fluoro-2-{(R)-3-[6-methoxy-8-oxo-7-(2-trifluoromethyl-benzyl)-7,8-dihydro-purin-9-yl]-pyrrolidin-1-yl}-benzonitrile]: 863 nM; `CN(C)C(=O)c1cccc2c1n(Cc1ccccc1C(F)(F)F)c(=O)n2[C@@H]1CCN(c2c(F)cccc2C#N)C1` [Example 101, 1-[(R)-1-(2-Cyano-6-fluoro-phenyl)-pyrrolidin-3-yl]-2-oxo-3-(2-trifluoromethyl-benzyl)-2,3-dihydro-1H-benzoimidazole-4-carboxylic acid dimethylamide]: 1580 nM; `COc1ccnc(C)c1N1CCC(n2c(=O)n(Cc3ccccc3C(F)(F)F)c3c(OC)cccc32)CC1` [Example 247, 4-Methoxy-1-(4′-methoxy-2′-methyl-3,4,5,6-tetrahydro-2H-[1,3′]bipyridinyl-4-yl)-3-(2-trifluoromethyl-benzyl)-1,3-dihydro-benzoimidazol-2-one]: 563 nM.

Regarding `COc1cccc2c1n(Cc1ccccc1C(F)(F)F)c(=O)n2C1CN(c2c(C)cccc2F)C1` [Example 215, 1-[1-(2-Fluoro-6-methyl-phenyl)-azetidin-3-yl]-4-methoxy-3-(2-trifluoromethyl-benzyl)-1,3-dihydro-benzoimidazol-2-one], the IC50 was 27 nM.

With `COc1cccc2c1n(Cc1ccccc1C(F)(F)F)c(=O)n2C1CCN(c2c(C)cccc2F)CC1(C)C` (centres unmarked) [Example 227, 1-[1-(2-Fluoro-6-methyl-phenyl)-3,3-dimethyl-piperidin-4-yl]-4-methoxy-3-(2-trifluoromethyl-benzyl)-1,3-dihydro-benzoimidazol-2-one], the IC50 was 30 nM.

As for `COc1cccc2c1n(Cc1ccccc1C(F)(F)F)c(=O)n2C1CCN(c2c(C)ccnc2F)CC1` [Example 235, 1-(2′-Fluoro-4′-methyl-3,4,5,6-tetrahydro-2H-[1,3′]bipyridinyl-4-yl)-4-methoxy-3-(2-trifluoromethyl-benzyl)-1,3-dihydro-benzoimidazol-2-one], the IC50 was 28 nM. As for `COc1cccc2c1n(Cc1c(F)cc(F)cc1OC(C)C)c(=O)n2[C@@H]1CCN(c2c(C)cccc2F)C1` [Example 220, 3-(2,4-Difluoro-6-isopropoxy-benzyl)-1-[(R)-1-(2-fluoro-6-methyl-phenyl)-pyrrolidin-3-yl]-4-methoxy-1,3-dihydro-benzoimidazol-2-one], the IC50 turned out to be 109 nM. Next, `COc1cccc2c1n(Cc1ccccc1C(F)(F)F)c(=O)n2[C@@H]1CCN(c2nnc(C(C)C)o2)C1` [Example 69, 1-[(R)-1-(5-Isopropyl-[1,3,4]oxadiazol-2-yl)-pyrrolidin-3-yl]-4-methoxy-3-(2-trifluoromethyl-benzyl)-1,3-dihydro-benzoimidazol-2-one]: 2820 nM; `COc1cccc2c1n(Cc1nnc(Cl)cc1OC(C)C)c(=O)n2[C@@H]1CCN(c2c(C)cccc2F)C1` [Example 172, 3-(6-Chloro-4-isopropoxy-pyridazin-3-ylmethyl)-1-[(R)-1-(2-fluoro-6-methyl-phenyl)-pyrrolidin-3-yl]-4-methoxy-1,3-dihydro-benzoimidazol-2-one]: 275 nM; `COc1cccc2c1n(Cc1nccnc1C(C)C)c(=O)n2[C@@H]1CCN(c2c(C)cccc2F)C1` [Example 189, 1-[(R)-1-(2-Fluoro-6-methyl-phenyl)-pyrrolidin-3-yl]-3-(3-isopropyl-pyrazin-2-ylmethyl)-4-methoxy-1,3-dihydro-benzoimidazol-2-one]: 13 nM. `COc1cccc2c1n(Cc1ccccc1C(F)(F)F)c(=O)n2C1CCN(c2c(C)cccc2C)CC1` [Example 2, 1-[1-(2,6-Dimethyl-phenyl)-piperidin-4-yl]-4-methoxy-3-(2-trifluoromethyl-benzyl)-1,3-dihydro-benzoimidazol-2-one]: the IC50 is 18 nM. For `COc1cccc2c1n(Cc1ccccc1C(F)(F)F)c(=O)n2[C@@H]1CCN(c2c(C)c(C)nn2C)C1` [Example 85, 4-Methoxy-3-(2-trifluoromethyl-benzyl)-1-[(R)-1-(2,4,5-trimethyl-2H-pyrazol-3-yl)-pyrrolidin-3-yl]-1,3-dihydro-benzoimidazol-2-one], the IC50 was determined as 712 nM. The same measure for `COc1cccc2c1n(Cc1cccnc1C(F)(F)F)c(=O)n2C1CCN(c2c(C)cccc2C)CC1` [Example 54, 1-[1-(2,6-Dimethyl-phenyl)-piperidin-4-yl]-4-methoxy-3-(2-trifluoromethyl-pyridin-3-ylmethyl)-1,3-dihydro-benzoimidazol-2-one]: 43 nM.

As to `COc1cccc2c1n(Cc1ccccc1C(F)(F)F)c(=O)n2C1CCN(c2c(C)ccnc2C)CC1` [Example 237, 1-(2′,4′-Dimethyl-3,4,5,6-tetrahydro-2H-[1,3′]bipyridinyl-4-yl)-4-methoxy-3-(2-trifluoromethyl-benzyl)-1,3-dihydro-benzoimidazol-2-one], the IC50 amounted to 90 nM. As for `COc1cncc2c1n(Cc1ccccc1C(F)(F)F)c(=O)n2C1CCN(c2c(C)cccc2F)CC1` [Example 229, 3-[1-(2-Fluoro-6-methyl-phenyl)-piperidin-4-yl]-7-methoxy-1-(2-trifluoromethyl-benzyl)-1,3-dihydro-imidazo[4,5-c]pyridin-2-one], the IC50 was 268 nM.
